Assays:
[1] = molecular target: Aurora kinase A (Homo sapiens) (UniProt O14965); settings: Compound concentration 1000.0 nM
[2] = molecular target: BMP-2-inducible protein kinase (Homo sapiens) (UniProt Q9NSY1); settings: Compound concentration 1000.0 nM
[3] = molecular target: Calcium/calmodulin-dependent protein kinase type II subunit beta (Homo sapiens) (UniProt Q13554); settings: Compound concentration 1000.0 nM
[4] = molecular target: Cyclin-dependent kinase-like 2 (Homo sapiens) (UniProt Q92772); settings: Compound concentration 1000.0 nM
[5] = molecular target: Casein kinase I isoform gamma-3 (Homo sapiens) (UniProt Q9Y6M4); settings: Compound concentration 1000.0 nM
[6] = molecular target: Discoidin domain-containing receptor 2 (Homo sapiens) (UniProt Q16832); settings: Compound concentration 1000.0 nM
[7] = molecular target: Mitogen-activated protein kinase 4 (Homo sapiens) (UniProt P31152); settings: Compound concentration 1000.0 nM
[8] = tested on: Receptor-type tyrosine-protein kinase FLT3 (Homo sapiens), P36888 [D835Y]; settings: Compound concentration 1000.0 nM
[9] = tested on: Receptor-type tyrosine-protein kinase FLT3 (Homo sapiens), P36888 [N841I]; settings: Compound concentration 1000.0 nM
[10] = tested on: Receptor-type tyrosine-protein kinase FLT3 (Homo sapiens), P36888 [R834Q]; settings: Compound concentration 1000.0 nM
[11] = tested on: eIF-2-alpha kinase GCN2 (Homo sapiens), Q9P2K8 [S808G]; settings: Compound concentration 1000.0 nM
[12] = molecular target: Rhodopsin kinase GRK1 (Homo sapiens) (UniProt Q15835); settings: Compound concentration 1000.0 nM
[13] = molecular target: Tyrosine-protein kinase HCK (Homo sapiens) (UniProt P08631); settings: Compound concentration 1000.0 nM
[14] = molecular target: Inhibitor of nuclear factor kappa-B kinase subunit alpha (Homo sapiens) (UniProt O15111); settings: Compound concentration 1000.0 nM
[15] = tested on: Mast/stem cell growth factor receptor Kit (Homo sapiens), P10721 [L576P]; settings: Compound concentration 1000.0 nM
Sequence of Mast/stem cell growth factor receptor Kit (Homo sapiens), P10721 [L576P] (P10721 whole entry L576P): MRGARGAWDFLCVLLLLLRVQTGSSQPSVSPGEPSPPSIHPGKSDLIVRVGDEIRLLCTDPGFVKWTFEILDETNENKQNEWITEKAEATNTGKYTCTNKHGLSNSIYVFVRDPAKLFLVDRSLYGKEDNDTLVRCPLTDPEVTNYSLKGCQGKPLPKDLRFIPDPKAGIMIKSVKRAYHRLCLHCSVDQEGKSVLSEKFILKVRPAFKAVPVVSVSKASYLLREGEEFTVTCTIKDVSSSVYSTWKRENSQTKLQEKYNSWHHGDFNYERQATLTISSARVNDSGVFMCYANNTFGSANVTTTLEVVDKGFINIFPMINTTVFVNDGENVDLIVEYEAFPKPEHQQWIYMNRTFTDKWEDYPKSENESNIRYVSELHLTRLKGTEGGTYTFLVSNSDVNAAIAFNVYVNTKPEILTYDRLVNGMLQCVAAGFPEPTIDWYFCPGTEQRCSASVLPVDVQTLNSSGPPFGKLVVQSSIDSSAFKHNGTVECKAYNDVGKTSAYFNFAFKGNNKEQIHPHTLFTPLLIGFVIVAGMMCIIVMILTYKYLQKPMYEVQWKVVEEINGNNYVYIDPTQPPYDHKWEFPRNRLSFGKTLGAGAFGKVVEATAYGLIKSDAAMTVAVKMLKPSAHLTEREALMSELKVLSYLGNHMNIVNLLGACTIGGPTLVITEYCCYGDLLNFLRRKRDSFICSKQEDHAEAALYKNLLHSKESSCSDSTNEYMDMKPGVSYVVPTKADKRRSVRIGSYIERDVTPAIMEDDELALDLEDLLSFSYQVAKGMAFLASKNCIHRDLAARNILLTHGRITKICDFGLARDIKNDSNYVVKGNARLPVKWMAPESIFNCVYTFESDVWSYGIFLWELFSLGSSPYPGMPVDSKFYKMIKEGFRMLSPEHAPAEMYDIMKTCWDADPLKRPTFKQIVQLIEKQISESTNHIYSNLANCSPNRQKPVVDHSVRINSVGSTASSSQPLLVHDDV

[16] = tested on: Mast/stem cell growth factor receptor Kit (Homo sapiens), P10721 [V559D]; settings: Compound concentration 1000.0 nM
Sequence of Mast/stem cell growth factor receptor Kit (Homo sapiens), P10721 [V559D] (P10721 whole entry V559D): as the sequence (P10721 whole entry L576P) above, with V559D, P576L counted along it

[17] = molecular target: Serine/threonine-protein kinase STK11 (Homo sapiens) (UniProt Q15831); settings: Compound concentration 1000.0 nM
Sequence of Serine/threonine-protein kinase STK11 (Homo sapiens) (Q15831 whole entry): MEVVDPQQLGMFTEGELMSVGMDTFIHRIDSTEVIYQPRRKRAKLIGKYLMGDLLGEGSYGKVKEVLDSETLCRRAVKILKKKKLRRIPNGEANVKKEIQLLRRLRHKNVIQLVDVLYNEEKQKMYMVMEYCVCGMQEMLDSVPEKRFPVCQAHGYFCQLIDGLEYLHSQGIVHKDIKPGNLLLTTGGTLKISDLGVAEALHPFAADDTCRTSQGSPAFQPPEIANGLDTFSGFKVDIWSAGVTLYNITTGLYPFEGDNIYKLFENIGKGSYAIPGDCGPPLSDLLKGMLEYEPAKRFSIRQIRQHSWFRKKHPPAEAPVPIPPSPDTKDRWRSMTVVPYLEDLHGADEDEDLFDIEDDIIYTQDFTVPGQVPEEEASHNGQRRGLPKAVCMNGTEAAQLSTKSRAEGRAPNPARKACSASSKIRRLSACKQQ

[18] = molecular target: Tyrosine-protein kinase Lyn (Homo sapiens) (UniProt P07948); settings: Compound concentration 1000.0 nM
Sequence of Tyrosine-protein kinase Lyn (Homo sapiens) (P07948 2-512 limits assumed): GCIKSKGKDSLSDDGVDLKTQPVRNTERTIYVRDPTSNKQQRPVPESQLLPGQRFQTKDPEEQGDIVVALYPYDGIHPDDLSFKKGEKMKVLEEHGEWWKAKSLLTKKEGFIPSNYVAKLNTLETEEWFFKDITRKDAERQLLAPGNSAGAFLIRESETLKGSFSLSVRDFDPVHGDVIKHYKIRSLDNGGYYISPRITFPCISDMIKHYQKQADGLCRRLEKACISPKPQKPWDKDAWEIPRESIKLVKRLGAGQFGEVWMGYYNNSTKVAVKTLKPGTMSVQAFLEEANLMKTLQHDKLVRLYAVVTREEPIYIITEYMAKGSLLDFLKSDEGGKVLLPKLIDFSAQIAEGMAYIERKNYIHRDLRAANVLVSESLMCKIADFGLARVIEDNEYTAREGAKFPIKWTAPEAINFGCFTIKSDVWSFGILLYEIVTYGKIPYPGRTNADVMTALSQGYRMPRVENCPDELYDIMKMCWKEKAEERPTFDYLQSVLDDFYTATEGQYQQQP

[19] = molecular target: Serine/threonine-protein kinase MAK (Homo sapiens) (UniProt P20794); settings: Compound concentration 1000.0 nM
Sequence of Serine/threonine-protein kinase MAK (Homo sapiens) (P20794 whole entry): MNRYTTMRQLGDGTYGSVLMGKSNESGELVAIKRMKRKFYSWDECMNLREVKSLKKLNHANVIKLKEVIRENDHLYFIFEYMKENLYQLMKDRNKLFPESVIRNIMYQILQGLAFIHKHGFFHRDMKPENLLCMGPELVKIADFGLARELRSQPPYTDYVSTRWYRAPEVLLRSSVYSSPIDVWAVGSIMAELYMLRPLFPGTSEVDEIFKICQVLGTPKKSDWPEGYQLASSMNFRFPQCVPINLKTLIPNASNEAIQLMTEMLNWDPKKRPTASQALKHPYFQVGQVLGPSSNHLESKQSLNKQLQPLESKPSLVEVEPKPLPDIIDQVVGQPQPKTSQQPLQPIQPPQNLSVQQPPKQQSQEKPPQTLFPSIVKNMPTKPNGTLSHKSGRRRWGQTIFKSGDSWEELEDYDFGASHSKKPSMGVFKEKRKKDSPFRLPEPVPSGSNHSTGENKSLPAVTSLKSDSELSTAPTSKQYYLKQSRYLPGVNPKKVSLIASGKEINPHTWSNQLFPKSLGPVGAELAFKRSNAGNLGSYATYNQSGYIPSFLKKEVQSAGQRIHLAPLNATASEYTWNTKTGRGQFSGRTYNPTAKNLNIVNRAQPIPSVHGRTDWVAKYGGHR

[20] = molecular target: Dual specificity mitogen-activated protein kinase kinase 1 (Homo sapiens) (UniProt Q02750); settings: Compound concentration 1000.0 nM
[21] = molecular target: Hepatocyte growth factor receptor (Homo sapiens) (UniProt P08581); settings: Compound concentration 1000.0 nM
[22] = molecular target: Serine/threonine-protein kinase PAK 4 (Homo sapiens) (UniProt O96013); settings: Compound concentration 1000.0 nM
Sequence of Serine/threonine-protein kinase PAK 4 (Homo sapiens) (O96013 whole entry, looked up, canonical isoform): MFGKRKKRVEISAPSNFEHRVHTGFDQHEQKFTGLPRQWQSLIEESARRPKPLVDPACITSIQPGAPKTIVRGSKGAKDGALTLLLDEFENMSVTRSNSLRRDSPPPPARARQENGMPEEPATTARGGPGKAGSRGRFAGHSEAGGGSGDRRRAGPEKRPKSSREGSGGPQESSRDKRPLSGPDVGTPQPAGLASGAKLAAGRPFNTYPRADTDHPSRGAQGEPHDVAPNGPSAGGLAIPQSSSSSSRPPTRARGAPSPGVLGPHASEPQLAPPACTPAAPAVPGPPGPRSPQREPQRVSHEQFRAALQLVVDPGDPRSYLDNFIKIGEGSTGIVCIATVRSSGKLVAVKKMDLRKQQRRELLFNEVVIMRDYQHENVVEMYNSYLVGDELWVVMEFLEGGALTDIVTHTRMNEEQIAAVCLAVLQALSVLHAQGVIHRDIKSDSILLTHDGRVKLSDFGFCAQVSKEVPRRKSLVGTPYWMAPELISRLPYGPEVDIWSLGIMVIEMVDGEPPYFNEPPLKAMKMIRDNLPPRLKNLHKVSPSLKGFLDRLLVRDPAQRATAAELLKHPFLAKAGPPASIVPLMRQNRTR

[23] = molecular target: Phosphorylase b kinase regulatory subunit alpha, liver isoform (Homo sapiens) (UniProt P46019); settings: Compound concentration 1000.0 nM
[24] = molecular target: Serine/threonine-protein kinase pim-2 (Homo sapiens) (UniProt Q9P1W9); settings: Compound concentration 1000.0 nM
[25] = molecular target: Serine/threonine-protein kinase pim-3 (Homo sapiens) (UniProt Q86V86); settings: Compound concentration 1000.0 nM
[26] = molecular target: Serine/threonine-protein kinase PknB (Mycobacterium tuberculosis) (UniProt P9WI81); settings: Compound concentration 1000.0 nM
Sequence of Serine/threonine-protein kinase PknB (Mycobacterium tuberculosis) (P9WI81 whole entry): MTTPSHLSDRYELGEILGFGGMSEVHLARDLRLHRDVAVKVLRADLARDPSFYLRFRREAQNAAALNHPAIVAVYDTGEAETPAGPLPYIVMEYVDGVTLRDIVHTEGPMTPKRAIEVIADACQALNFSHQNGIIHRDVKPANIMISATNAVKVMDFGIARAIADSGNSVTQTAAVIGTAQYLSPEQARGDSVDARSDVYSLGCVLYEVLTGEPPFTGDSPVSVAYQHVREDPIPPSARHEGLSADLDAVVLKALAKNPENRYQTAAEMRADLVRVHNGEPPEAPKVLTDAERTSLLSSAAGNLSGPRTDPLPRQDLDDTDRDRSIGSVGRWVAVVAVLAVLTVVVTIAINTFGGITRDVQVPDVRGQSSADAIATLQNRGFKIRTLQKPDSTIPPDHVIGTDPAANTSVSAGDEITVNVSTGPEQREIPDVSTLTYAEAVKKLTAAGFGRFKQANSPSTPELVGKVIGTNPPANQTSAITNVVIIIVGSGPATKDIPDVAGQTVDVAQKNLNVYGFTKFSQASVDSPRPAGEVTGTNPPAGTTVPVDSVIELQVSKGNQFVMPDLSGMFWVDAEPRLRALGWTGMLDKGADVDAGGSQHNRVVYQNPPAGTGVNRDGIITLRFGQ

[27] = molecular target: Interferon-induced, double-stranded RNA-activated protein kinase (Homo sapiens) (UniProt P19525); settings: Compound concentration 1000.0 nM
Sequence of Interferon-induced, double-stranded RNA-activated protein kinase (Homo sapiens) (P19525 whole entry): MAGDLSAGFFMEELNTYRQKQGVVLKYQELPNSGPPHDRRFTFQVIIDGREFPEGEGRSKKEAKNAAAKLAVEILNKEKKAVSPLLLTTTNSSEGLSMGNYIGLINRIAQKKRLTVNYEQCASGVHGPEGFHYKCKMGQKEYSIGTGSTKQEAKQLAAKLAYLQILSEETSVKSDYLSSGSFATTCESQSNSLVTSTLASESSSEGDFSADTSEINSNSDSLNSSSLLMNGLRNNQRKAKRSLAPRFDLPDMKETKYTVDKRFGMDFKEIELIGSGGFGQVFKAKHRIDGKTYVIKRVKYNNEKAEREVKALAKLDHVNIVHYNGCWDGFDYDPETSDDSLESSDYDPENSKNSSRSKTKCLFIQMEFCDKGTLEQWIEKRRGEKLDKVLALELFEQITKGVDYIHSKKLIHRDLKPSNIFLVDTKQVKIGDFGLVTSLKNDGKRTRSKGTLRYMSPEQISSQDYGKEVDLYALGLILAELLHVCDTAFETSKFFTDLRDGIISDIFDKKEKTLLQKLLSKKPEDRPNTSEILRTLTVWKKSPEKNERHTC

[28] = molecular target: Proto-oncogene tyrosine-protein kinase receptor Ret (Homo sapiens) (UniProt P07949); settings: Compound concentration 1000.0 nM
[29] = molecular target: Serine/threonine-protein kinase RIO3 (Homo sapiens) (UniProt O14730); settings: Compound concentration 1000.0 nM
[30] = molecular target: Receptor-interacting serine/threonine-protein kinase 1 (Homo sapiens) (UniProt Q13546); settings: Compound concentration 1000.0 nM
[31] = molecular target: Receptor-interacting serine/threonine-protein kinase 4 (Homo sapiens) (UniProt P57078); settings: Compound concentration 1000.0 nM
[32] = molecular target: Ribosomal protein S6 kinase alpha-5 (Homo sapiens) (UniProt O75582); settings: Compound concentration 1000.0 nM
[33] = molecular target: Serine/threonine-protein kinase SIK1 (Homo sapiens) (UniProt P57059); settings: Compound concentration 1000.0 nM
[34] = molecular target: Proto-oncogene tyrosine-protein kinase Src (Homo sapiens) (UniProt P12931); settings: Compound concentration 1000.0 nM
[35] = molecular target: Serine/threonine-protein kinase 35 (Homo sapiens) (UniProt Q8TDR2); settings: Compound concentration 1000.0 nM
[36] = molecular target: Serine/threonine-protein kinase ULK2 (Homo sapiens) (UniProt Q8IYT8); settings: Compound concentration 1000.0 nM
[37] = molecular target: Serine/threonine-protein kinase VRK2 (Homo sapiens) (UniProt Q86Y07); settings: Compound concentration 1000.0 nM
[38] = molecular target: Wee1-like protein kinase (Homo sapiens) (UniProt P30291); settings: Compound concentration 1000.0 nM
[39] = molecular target: 5-hydroxytryptamine receptor 6 (Homo sapiens) (UniProt P50406); settings: Compound concentration 10.0 uM
[40] = molecular target: D(1B) dopamine receptor (Homo sapiens) (UniProt P21918); settings: Compound concentration 10.0 uM
[41] = molecular target: GABA-A receptor; anion channel (Rattus norvegicus) (UniProt O09028+P15431+P18506+P18508+P19969+P20236+P23574+P23576+P28471+P28473+P30191+P62813+P63079+P63138+Q91ZM7+Q9ES14); settings: Compound concentration 10.0 uM
[42] = molecular target: Alpha-1B adrenergic receptor (Homo sapiens) (UniProt P35368); settings: Compound concentration 10.0 uM
[43] = molecular target: Alpha-2A adrenergic receptor (Homo sapiens) (UniProt P08913); settings: Compound concentration 10.0 uM
Sequence of Alpha-2A adrenergic receptor (Homo sapiens) (P08913 whole entry): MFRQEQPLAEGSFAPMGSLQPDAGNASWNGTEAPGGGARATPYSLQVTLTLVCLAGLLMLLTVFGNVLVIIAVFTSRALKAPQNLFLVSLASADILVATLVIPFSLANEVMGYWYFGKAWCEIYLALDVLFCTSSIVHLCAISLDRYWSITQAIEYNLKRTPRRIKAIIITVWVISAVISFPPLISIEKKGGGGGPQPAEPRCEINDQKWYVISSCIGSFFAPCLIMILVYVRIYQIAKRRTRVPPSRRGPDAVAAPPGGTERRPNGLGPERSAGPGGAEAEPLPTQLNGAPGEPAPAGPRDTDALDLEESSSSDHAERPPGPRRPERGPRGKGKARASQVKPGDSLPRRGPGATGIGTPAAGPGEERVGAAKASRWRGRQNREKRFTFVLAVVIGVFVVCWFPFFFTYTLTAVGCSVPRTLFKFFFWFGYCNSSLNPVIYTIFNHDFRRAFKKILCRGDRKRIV

CCS(=O)(=O)c1cc2cc(C[C@](O)(CC(C)(C)c3ccc(F)cc3C(N)=O)C(F)(F)F)[nH]c2cn1
inactive: residual activity [1] 88% | residual activity [2] 83% | residual activity [3] 97% | residual activity [4] 93% | residual activity [5] 100% | residual activity [6] 88% | residual activity [7] 100% | residual activity [8] 100% | residual activity [9] 93% | residual activity [10] 100% | residual activity [11] 89% | residual activity [12] 100% | residual activity [13] 100% | residual activity [14] 100% | residual activity [15] 83% | residual activity [16] 100% | residual activity [17] 100% | residual activity [18] 100% | residual activity [19] 100% | residual activity [20] 91% | residual activity [21] 98% | residual activity [22] 100% | residual activity [23] 100% | residual activity [24] 100% | residual activity [25] 100% | residual activity [26] 95% | residual activity [27] 52% | residual activity [28] 93% | residual activity [29] 91% | residual activity [30] 100% | residual activity [31] 93% | residual activity [32] 94% | residual activity [33] 100% | residual activity [34] 100% | residual activity [35] 100% | residual activity [36] 100% | residual activity [37] 100% | residual activity [38] 100% | inhibition [39] -3.78% | inhibition [40] 34.2% | inhibition [41] -1.62% | inhibition [42] 3.39% | inhibition [43] -4.94%

CCS(=O)(=O)c1cc2cc(C[C@@](O)(CC(C)(C)c3ccc(F)cc3C(N)=O)C(F)(F)F)[nH]c2cn1
inactive: residual activity [1] 88% | residual activity [2] 69% | residual activity [3] 100% | residual activity [4] 90% | residual activity [5] 100% | residual activity [6] 100% | residual activity [7] 84% | residual activity [8] 99% | residual activity [9] 100% | residual activity [10] 78% | residual activity [11] 94% | residual activity [12] 100% | residual activity [13] 100% | residual activity [14] 95% | residual activity [15] 100% | residual activity [16] 100% | residual activity [17] 100% | residual activity [18] 100% | residual activity [19] 100% | residual activity [20] 68% | residual activity [21] 100% | residual activity [22] 88% | residual activity [23] 100% | residual activity [24] 99% | residual activity [25] 100% | residual activity [26] 84% | residual activity [27] 61% | residual activity [28] 100% | residual activity [29] 74% | residual activity [30] 92% | residual activity [31] 100% | residual activity [32] 100% | residual activity [33] 100% | residual activity [34] 100% | residual activity [35] 100% | residual activity [36] 85% | residual activity [37] 80% | residual activity [38] 100% | inhibition [39] -3.13% | inhibition [40] 32.4% | inhibition [41] 3.48% | inhibition [42] 1.64% | inhibition [43] -5.76%
